From patent publication US8048916B2, “Ester compound and use thereof” (Sumitomo Chemical Company, Limited, priority 2007, dated 2011)

Each molecule was assayed on houseflies (assay: Test Example 2: knock-down test on houseflies in a 70 cm cubic chamber (KT50)). Conditions: 0.00625% (w/v), 0.7 ml sprayed into 70 cm cubic chamber, knock-down counted until 10 minutes.
Type: in vivo, housefly
Protocol: Each of the compositions of the compounds (1) and (2) of the present invention obtained by Formulation Example 7 was diluted with mixed liquid of dichloromethane/deodorized kerosine=1/9 (w/w) so that the effective ingredient concentration became 0.00625% (w/v) to prepare a test solution.
Ten houseflies were released in a cubic chamber having a side of 70 cm to spray 0.7 ml of the above-mentioned oil-based preparation into the chamber through a small window on the side face of the chamber at a spray pressure of 0.9 kg/cm^2 with a spray gun. Then, the number of houseflies knocked down was counted with time until 10 minutes later (two repetitions each). The effect was evaluated with 4 grades of ⊙ to × as described below by means of a KT50 value calculated from the obtained results.
As a control test, the similar tests were performed by using as comparative reference compounds 2,3,5,6-tetrafluoro-4-methoxymethylbenzyl (1R,3S)-3-((E)-2-cyano-2-fluorovinyl)-2,2-dimethylcyclopropanecarboxylate

Q: `COCc1c(F)c(F)c(COC(=O)[C@@H]2C(C=C(F)C#N)C2(C)C)c(F)c1F` (stereo in doubt) [control compound (A), 2,3,5,6-tetrafluoro-4-methoxymethylbenzyl (1R,3S)-3-((E)-2-cyano-2-fluorovinyl)-2,2-dimethylcyclopropanecarboxylate] was tested. Which “Efficacy (grade by KT50 value)” value did it give?
A: X (KT50 value is 4 minutes or more)

Q: For `COCc1c(F)c(F)c(COC(=O)[C@@H]2C(/C=C(\Cl)C#N)C2(C)C)c(F)c1F` (stereo in doubt) [compound (1), 2,3,5,6-tetrafluoro-4-methoxymethylbenzyl (1R,3S)-3-((Z)-2-chloro-2-cyanovinyl)-2,2-dimethylcyclopropanecarboxylate], which “Efficacy (grade by KT50 value)” value is on record?
A: ◯ (KT50 value is 2 minutes or more and less than 3 minutes)

Q: Which “Efficacy (grade by KT50 value)” value does the source give for `COCc1c(F)c(F)c(COC(=O)[C@@H]2C(/C=C(/Cl)C#N)C2(C)C)c(F)c1F` (stereo in doubt) [compound (2), 2,3,5,6-tetrafluoro-4-methoxymethylbenzyl (1R,3S)-3-((E)-2-chloro-2-cyanovinyl)-2,2-dimethylcyclopropanecarboxylate] here?
A: ⊙ (KT50 value is less than 2 minutes)

Q: Which “Efficacy (grade by KT50 value)” value does the source give for `COCc1c(F)c(F)c(COC(=O)[C@@H]2C(C=C(F)C#N)C2(C)C)c(F)c1F` (stereo in doubt) [control compound (B), 2,3,5,6-tetrafluoro-4-methoxymethylbenzyl (1R,3S)-3-((Z)-2-cyano-2-fluorovinyl)-2,2-dimethylcyclopropanecarboxylate] here?
A: Δ (KT50 value is 3 minutes or more and less than 4 minutes)
